Experiments:
[1] = target: T1, Thromboxane A2 receptor (Homo sapiens, UniProt P21731); type: functional, cell-based
T1 sequence (P21731 whole entry): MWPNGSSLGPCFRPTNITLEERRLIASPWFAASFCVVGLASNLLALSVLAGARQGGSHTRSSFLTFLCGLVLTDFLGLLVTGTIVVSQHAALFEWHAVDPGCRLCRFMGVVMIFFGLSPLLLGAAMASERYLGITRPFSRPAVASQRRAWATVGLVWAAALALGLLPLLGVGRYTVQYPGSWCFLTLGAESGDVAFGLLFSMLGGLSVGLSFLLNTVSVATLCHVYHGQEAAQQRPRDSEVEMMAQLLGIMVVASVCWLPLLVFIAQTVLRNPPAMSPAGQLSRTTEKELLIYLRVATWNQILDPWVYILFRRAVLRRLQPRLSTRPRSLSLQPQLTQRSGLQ

[2] = target: T2, Adenosine receptor A3 (Homo sapiens, UniProt P0DMS8)
T2 sequence (P0DMS8 whole entry): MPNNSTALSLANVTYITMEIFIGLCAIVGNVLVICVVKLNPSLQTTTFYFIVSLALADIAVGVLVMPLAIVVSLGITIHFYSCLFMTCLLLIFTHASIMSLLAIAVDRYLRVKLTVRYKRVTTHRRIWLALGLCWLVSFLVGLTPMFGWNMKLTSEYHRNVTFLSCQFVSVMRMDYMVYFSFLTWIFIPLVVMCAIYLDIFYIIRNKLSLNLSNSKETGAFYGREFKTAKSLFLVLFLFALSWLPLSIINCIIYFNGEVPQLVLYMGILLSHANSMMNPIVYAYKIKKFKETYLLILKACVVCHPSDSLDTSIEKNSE

[3] = target: D(3) dopamine receptor (Homo sapiens, UniProt P35462)
D(3) dopamine receptor, sequence (P35462 whole entry): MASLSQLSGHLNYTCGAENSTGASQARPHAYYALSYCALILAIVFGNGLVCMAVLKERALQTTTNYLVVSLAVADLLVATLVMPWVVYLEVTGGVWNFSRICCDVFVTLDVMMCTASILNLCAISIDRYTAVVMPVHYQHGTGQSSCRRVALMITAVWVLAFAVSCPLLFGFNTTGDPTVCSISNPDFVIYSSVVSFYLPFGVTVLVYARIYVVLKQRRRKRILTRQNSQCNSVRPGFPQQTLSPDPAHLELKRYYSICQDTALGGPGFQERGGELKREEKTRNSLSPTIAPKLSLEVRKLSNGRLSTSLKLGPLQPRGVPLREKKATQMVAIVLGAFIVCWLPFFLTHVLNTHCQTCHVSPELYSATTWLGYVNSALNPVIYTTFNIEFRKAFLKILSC

[4] = target: T3, Alpha-1A adrenergic receptor (Homo sapiens, UniProt P35348); type: functional, cell-based
T3 sequence (P35348 whole entry): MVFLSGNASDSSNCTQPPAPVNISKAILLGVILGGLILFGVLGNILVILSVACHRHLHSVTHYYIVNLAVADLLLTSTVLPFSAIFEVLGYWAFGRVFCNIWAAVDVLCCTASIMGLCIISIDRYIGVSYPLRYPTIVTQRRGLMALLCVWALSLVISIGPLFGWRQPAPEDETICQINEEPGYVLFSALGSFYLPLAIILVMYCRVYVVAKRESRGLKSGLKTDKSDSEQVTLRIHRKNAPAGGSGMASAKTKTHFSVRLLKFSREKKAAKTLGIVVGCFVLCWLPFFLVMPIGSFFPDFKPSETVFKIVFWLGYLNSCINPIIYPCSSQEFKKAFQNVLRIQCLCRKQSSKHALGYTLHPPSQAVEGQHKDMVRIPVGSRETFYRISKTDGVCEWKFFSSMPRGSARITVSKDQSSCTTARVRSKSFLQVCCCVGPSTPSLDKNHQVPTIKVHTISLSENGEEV

[5] = target: Sodium-dependent serotonin transporter (Homo sapiens, UniProt P31645)
Sodium-dependent serotonin transporter, sequence (P31645 whole entry): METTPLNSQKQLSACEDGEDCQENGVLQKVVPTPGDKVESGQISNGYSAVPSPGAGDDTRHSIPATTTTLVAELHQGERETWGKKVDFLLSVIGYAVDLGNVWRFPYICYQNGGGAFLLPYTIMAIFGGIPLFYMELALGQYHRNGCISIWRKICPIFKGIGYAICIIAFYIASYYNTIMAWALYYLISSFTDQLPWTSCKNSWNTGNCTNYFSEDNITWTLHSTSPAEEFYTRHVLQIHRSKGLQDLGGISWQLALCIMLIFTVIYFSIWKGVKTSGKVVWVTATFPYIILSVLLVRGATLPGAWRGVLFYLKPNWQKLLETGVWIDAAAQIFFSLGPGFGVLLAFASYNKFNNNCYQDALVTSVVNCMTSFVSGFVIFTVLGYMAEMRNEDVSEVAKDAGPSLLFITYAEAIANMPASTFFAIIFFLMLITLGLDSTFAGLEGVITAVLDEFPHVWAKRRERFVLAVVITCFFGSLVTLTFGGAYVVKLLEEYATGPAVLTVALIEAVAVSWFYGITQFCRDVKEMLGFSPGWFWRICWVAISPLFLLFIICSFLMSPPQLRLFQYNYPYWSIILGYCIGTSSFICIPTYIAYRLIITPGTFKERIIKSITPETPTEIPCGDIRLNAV

[6] = target: T4, Alpha-2A adrenergic receptor (Homo sapiens, UniProt P08913)
T4 sequence (P08913 whole entry): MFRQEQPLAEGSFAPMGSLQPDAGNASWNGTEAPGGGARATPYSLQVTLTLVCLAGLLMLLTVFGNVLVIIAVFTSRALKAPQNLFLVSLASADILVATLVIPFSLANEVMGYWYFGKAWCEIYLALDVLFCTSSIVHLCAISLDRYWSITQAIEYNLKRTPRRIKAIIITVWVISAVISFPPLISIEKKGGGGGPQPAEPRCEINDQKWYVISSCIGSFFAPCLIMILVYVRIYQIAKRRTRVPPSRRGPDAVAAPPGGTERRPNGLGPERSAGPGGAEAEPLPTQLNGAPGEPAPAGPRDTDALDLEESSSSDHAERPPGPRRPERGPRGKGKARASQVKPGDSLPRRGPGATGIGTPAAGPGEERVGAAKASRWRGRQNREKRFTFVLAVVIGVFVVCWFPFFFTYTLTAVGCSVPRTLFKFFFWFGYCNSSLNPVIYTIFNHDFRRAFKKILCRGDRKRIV

[7] = target: D(1A) dopamine receptor (Homo sapiens, UniProt P21728)
D(1A) dopamine receptor, sequence (P21728 whole entry): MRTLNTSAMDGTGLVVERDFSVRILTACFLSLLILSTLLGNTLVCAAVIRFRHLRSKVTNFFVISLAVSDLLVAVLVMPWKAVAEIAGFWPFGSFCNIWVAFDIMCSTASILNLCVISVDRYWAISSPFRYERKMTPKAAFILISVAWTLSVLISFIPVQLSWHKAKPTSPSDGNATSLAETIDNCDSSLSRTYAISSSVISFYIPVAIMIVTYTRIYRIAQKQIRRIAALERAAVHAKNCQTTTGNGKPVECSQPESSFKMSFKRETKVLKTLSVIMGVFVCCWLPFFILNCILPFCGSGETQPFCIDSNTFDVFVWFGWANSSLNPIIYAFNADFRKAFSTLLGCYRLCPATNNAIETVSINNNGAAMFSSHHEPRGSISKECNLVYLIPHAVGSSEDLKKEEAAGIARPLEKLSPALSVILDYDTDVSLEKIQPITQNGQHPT

[8] = target: T5, Muscarinic acetylcholine receptor M2 (Homo sapiens, UniProt P08172)
T5 sequence (P08172 whole entry): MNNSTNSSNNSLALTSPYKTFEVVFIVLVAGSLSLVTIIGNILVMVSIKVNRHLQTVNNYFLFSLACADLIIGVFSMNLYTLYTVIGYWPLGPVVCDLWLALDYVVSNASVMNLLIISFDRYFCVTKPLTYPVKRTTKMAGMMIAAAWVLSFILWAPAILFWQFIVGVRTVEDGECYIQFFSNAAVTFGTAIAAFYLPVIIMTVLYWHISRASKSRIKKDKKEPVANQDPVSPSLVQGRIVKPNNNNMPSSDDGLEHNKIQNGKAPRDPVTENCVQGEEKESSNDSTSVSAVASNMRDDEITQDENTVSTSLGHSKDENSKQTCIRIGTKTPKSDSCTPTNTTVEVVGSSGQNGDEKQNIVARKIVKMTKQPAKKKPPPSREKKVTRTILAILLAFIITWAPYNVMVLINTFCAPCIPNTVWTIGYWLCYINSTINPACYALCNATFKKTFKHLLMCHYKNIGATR

[9] = target: Voltage-gated inwardly rectifying potassium channel KCNH2 (Homo sapiens, UniProt Q12809); type: functional; conditions: read-out: AC50
Voltage-gated inwardly rectifying potassium channel KCNH2, sequence (Q12809 whole entry): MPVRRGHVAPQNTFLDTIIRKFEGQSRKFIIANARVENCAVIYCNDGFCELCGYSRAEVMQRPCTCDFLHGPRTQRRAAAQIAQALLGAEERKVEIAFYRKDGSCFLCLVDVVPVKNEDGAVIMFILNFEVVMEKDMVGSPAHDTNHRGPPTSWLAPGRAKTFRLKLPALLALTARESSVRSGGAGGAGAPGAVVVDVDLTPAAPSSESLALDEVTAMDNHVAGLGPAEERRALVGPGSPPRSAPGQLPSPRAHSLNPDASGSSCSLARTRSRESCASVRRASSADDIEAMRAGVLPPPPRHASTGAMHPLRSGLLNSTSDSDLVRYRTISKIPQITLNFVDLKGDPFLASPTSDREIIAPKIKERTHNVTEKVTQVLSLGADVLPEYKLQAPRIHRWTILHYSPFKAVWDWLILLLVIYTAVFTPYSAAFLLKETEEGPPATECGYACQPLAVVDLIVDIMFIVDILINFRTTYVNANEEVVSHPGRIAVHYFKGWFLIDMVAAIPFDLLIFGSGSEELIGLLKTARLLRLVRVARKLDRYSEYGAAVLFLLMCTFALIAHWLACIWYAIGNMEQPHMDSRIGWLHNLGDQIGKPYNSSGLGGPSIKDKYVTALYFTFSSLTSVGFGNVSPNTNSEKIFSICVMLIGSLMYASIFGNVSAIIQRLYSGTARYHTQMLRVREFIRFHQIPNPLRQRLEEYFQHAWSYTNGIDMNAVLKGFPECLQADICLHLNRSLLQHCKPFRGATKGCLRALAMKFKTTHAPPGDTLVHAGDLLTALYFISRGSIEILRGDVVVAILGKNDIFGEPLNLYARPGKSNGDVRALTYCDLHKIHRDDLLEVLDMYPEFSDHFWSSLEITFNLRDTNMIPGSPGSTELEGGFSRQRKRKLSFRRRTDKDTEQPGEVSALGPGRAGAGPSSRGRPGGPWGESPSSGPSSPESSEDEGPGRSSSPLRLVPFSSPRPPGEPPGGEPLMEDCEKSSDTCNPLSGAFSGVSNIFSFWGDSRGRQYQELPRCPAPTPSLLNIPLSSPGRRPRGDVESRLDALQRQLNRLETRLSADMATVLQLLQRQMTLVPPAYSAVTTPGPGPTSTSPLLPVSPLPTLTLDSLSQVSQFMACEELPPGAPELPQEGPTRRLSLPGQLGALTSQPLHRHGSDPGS

[10] = target: T6, Prostaglandin G/H synthase 1 (Homo sapiens, UniProt P23219); type: functional
T6 sequence (P23219 whole entry): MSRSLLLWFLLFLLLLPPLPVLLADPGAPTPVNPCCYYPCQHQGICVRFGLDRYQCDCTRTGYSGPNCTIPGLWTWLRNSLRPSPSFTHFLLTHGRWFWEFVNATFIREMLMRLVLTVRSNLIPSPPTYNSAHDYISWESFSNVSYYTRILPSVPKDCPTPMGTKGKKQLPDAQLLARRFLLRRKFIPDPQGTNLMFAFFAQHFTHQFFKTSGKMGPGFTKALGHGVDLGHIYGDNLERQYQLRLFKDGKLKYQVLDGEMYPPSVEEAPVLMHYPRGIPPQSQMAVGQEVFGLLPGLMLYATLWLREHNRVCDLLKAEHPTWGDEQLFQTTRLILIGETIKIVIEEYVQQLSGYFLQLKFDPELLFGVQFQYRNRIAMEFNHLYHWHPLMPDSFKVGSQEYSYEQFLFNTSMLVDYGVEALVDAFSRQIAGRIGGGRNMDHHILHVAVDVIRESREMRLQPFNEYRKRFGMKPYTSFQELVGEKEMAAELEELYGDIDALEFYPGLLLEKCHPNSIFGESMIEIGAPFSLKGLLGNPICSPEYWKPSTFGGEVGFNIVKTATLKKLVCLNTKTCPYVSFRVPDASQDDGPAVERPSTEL

[11] = target: Mu-type opioid receptor (Homo sapiens, UniProt P35372)
Mu-type opioid receptor, sequence (P35372 whole entry): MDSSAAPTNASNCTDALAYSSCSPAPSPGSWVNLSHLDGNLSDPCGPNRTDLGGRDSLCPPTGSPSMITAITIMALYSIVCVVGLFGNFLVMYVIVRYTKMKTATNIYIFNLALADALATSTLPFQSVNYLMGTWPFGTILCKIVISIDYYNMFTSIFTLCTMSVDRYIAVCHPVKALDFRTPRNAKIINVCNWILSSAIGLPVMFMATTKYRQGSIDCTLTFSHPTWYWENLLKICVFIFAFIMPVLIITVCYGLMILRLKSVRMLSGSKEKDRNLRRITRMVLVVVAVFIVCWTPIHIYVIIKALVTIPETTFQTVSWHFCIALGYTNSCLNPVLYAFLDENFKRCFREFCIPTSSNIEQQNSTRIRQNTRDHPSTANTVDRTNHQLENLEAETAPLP

[12] = target: T6, Prostaglandin G/H synthase 1; type: functional; remark: listed apart in the source
[13] = target: Prothrombin (Homo sapiens, UniProt P00734); type: functional
[14] = target: 5-hydroxytryptamine receptor 2B (Homo sapiens, UniProt P41595); type: functional, cell-based
5-hydroxytryptamine receptor 2B, sequence (P41595 whole entry): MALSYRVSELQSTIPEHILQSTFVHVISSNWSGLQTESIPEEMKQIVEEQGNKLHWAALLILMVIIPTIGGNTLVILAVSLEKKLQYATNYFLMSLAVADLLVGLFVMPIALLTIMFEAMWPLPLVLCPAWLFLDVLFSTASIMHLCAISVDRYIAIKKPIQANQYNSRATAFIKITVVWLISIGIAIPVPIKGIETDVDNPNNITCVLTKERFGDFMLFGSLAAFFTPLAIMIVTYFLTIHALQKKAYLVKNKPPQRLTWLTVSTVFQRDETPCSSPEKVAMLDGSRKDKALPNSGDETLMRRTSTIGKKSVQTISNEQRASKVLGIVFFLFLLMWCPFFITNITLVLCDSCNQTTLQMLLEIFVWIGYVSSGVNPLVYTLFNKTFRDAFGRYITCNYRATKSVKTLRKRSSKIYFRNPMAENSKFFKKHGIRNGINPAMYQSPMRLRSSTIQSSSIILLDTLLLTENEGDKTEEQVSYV

[15] = target: Histamine H3 receptor (Homo sapiens, UniProt Q9Y5N1)
Histamine H3 receptor, sequence (Q9Y5N1 whole entry): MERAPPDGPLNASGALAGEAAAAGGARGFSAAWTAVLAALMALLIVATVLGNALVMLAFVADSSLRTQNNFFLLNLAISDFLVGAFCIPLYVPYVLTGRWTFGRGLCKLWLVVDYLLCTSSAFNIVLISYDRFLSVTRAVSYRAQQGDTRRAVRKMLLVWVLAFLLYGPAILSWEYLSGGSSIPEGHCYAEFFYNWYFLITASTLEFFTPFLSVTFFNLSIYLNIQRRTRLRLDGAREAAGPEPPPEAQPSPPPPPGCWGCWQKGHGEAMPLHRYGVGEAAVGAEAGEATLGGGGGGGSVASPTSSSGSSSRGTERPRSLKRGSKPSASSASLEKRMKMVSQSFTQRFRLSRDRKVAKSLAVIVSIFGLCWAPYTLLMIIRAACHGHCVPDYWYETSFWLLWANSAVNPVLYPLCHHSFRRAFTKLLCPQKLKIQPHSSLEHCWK
Note: assay procedure not described here.

| SMILES | AC50 [1] [µM] | AC50 [2] [µM] | AC50 [3] [µM] | AC50 [4] [µM] | AC50 [5] [µM] | AC50 [6] [µM] | AC50 [7] [µM] | AC50 [8] [µM] | AC50 [9] [µM] | AC50 [10] [µM] | AC50 [11] [µM] | AC50 [12] [µM] | AC50 [13] [µM] | AC50 [14] [µM] | AC50 [15] [µM] |
| --- | --- | --- | --- | --- | --- | --- | --- | --- | --- | --- | --- | --- | --- | --- | --- |
| O=C(Nc1ccccc1)OCC(CN1CCCCC1)OC(=O)Nc1ccccc1 (stereo not given) [DIPERODON] | > 30 | > 30 | 23.5 | > 30 | > 30 | > 30 | > 30 | > 30 | 5.4 | > 30 | 11.2 | > 30 | > 30 | > 30 | > 30 |
| CCOc1ccc(/C=C2\NCCc3cc(OCC)c(OCC)cc32)cc1OCC [DROTAVERINE] | > 30 | 26.4 | > 30 | > 10 | 3 | 5.83 | > 30 | 28.4 | 2.9 | > 10 | > 10 | 9.33 | > 30 | > 30 | > 30 |
| CCOC(=O)C(c1c(O)c2ccccc2oc1=O)c1c(O)c2ccccc2oc1=O [ETHYL BISCOUMACETATE] | > 30 | 17.3 | > 30 | > 30 | > 30 | > 30 | > 30 | > 30 | > 30 | > 30 | > 30 | > 30 | > 30 | > 30 | > 30 |
| Cc1nc(-c2ccc(OCC(C)C)c(C#N)c2)sc1C(=O)O [FEBUXOSTAT] | > 30 | > 30 | > 30 | > 30 | > 30 | > 30 | > 30 | > 30 | > 30 | > 30 | > 30 | > 30 | > 30 | > 30 | > 30 |
| O=C1NCC2(CCN(CCc3ccccc3)CC2)O1 [FENSPIRIDE] | > 30 | > 30 | > 30 | > 30 | > 30 | 8.2 | 20.8 | 16.4 | > 30 | > 30 | > 30 | > 30 | > 30 | > 30 | > 30 |
| C[C@@H]1C[C@H]2[C@@H]3C[C@H](F)C4=CC(=O)C=C[C@]4(C)[C@@]3(F)[C@@H](O)C[C@]2(C)[C@@]1(O)C(=O)COC(=O)C(C)(C)C [FLUMETHASONE PIVALATE] | > 30 | > 30 | > 30 | > 30 | > 30 | > 30 | > 30 | > 30 | > 30 | > 30 | > 30 | > 30 | > 30 | > 30 | > 30 |
| CC/C=C\C/C=C\C/C=C\C/C=C\C/C=C\CCCC(=O)O [ICOSAPENT] | > 30 | 25.3 | > 30 | > 30 | > 30 | > 30 | > 30 | > 30 | > 30 | 9.84 | > 30 | > 10 | > 30 | > 30 | > 30 |
| CS(=O)(=O)Nc1cc2occ(NC=O)c(=O)c2cc1Oc1ccccc1 [IGURATIMOD] | > 30 | 1.44 | > 30 | > 30 | > 30 | > 30 | > 30 | > 30 | > 30 | 4.33 | > 30 | 4.51 | > 30 | > 30 | > 30 |
| CCC(Cc1c(I)cc(I)c(N)c1I)C(=O)O (stereo not given) [IOPANOIC ACID] | 14.4 | > 30 | > 30 | 24.2 | > 30 | > 30 | > 30 | > 30 | > 30 | > 30 | > 30 | > 30 | > 30 | > 30 | > 30 |
| O=C(NC1CCN(CCCCC2(C(=O)NCC(F)(F)F)c3ccccc3-c3ccccc32)CC1)c1ccccc1-c1ccc(C(F)(F)F)cc1 [LOMITAPIDE] | > 1 | 4.4 | 1.76 | 2.4 | > 30 | 13.2 | 1.49 | 22.6 | 0.86 | > 30 | 4.02 | 23.2 | > 30 | > 30 | > 30 |
| C1N2CN3CN1CN(C2)C3 [METHENAMINE] | > 30 | > 30 | > 30 | > 30 | > 30 | > 30 | > 30 | > 30 | > 30 | > 30 | > 30 | > 30 | > 30 | > 30 | > 30 |
| CC[C@@H]1/C=C(\C)C[C@H](C)C[C@H](OC)[C@H]2O[C@@](O)(C(=O)C(=O)N3CCCC[C@H]3C(=O)O[C@H](/C(C)=C/[C@@H]3CC[C@H](Cl)[C@H](OC)C3)[C@H](C)[C@@H](O)CC1=O)[C@H](C)C[C@@H]2OC [PIMECROLIMUS] | > 30 | 5.19 | > 30 | > 30 | > 30 | > 30 | > 30 | > 30 | > 30 | > 30 | > 30 | > 30 | > 30 | > 30 | > 30 |

Reference: ChEMBL document CHEMBL5291721, “A preclinical secondary pharmacology resource illuminates target-adverse drug reaction associations of marketed drugs” (Nat Commun, 2023)
